Experimental data from ChEMBL document CHEMBL4152259, “Benzoxazinone-containing 3,5-dimethylisoxazole derivatives as BET bromodomain inhibitors for treatment of castration-resistant prostate cancer” (Eur J Med Chem, 2018).
Active and inactive are the calls of the source. The calls are words filed in the database; no cut-off is given here.

How the values were obtained:
[1] = system: LNCaP; assay: Antiproliferative activity against human LNCAP cells treated at 12 hrs post cell seeding measured at 72 to 144 hrs post cell seeding by Cell-Titer Glo assay; type: functional, cell-based
[2] = molecular target: Bromodomain-containing protein 3 (Homo sapiens) (UniProt Q15059); assay: Binding affinity to His6-tagged human BRD3 bromodomain-2 expressed in Escherichia coli BL21(DE3) assessed as change in melting temperature at 200 uM by SYPRO orange dye based fluorescence assay
Sequence of Bromodomain-containing protein 3 (Homo sapiens) (Q15059 2-726 limits assumed): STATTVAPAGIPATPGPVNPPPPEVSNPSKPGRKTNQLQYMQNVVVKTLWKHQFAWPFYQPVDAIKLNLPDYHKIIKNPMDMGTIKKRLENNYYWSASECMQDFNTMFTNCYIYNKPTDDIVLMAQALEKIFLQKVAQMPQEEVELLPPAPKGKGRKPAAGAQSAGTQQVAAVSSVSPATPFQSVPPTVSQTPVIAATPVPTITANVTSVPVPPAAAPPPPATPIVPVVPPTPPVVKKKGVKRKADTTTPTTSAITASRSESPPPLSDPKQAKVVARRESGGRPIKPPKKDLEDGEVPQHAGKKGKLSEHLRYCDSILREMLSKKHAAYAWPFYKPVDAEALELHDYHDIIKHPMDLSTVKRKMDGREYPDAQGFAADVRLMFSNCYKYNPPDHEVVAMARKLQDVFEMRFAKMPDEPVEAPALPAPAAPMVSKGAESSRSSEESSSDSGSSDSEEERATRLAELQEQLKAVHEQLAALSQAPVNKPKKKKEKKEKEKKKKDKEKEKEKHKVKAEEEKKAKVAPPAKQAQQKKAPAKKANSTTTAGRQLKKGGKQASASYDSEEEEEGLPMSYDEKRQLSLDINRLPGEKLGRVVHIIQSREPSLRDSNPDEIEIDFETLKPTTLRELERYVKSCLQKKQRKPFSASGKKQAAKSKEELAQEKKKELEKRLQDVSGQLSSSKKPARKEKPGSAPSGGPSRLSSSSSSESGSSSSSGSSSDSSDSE

[3] = molecular target: T1, Bromodomain-containing protein 9 (Homo sapiens) (UniProt Q9H8M2); assay: Binding affinity to His6-tagged human BRD9 (L14 to Q134 residues) expressed in Escherichia coli BL21(DE3) assessed as change in melting temperature at 200 uM by SYPRO orange dye based fluorescence assay
T1 sequence (whole entry): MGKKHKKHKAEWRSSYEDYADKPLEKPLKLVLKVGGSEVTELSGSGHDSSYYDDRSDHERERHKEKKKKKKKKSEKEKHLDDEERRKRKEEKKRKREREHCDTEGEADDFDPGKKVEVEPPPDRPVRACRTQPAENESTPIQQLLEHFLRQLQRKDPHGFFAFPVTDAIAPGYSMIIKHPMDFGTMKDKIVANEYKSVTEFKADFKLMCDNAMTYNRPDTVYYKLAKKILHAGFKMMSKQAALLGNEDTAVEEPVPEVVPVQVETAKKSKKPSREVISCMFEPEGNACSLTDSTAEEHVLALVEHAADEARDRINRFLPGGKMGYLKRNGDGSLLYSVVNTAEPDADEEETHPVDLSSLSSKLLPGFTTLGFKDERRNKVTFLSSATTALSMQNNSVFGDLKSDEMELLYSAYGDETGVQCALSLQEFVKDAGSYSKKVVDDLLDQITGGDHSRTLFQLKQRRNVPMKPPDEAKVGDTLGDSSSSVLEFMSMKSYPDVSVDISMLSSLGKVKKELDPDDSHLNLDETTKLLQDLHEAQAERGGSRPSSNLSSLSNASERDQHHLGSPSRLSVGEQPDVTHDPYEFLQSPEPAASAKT

[4] = molecular target: T2, Bromodomain-containing protein 4 (Homo sapiens, UniProt O60885); assay: Inhibition of His6-tagged human BRD4 bromodomain-1 (N44 to E168 residues) expressed in Escherichia coli BL21(DE3) using biotinylated-H4KAc4 as substrate by AlphaScreen assay
[5] = species on record: Homo sapiens; assay: Inhibition of BET bromodomain in human LNCAP cells assessed as reduction in c-Myc mRNA level at 1 uM after 48 hrs by qPCR assay; type: cell-based
[6] = molecular target: T2, Bromodomain-containing protein 4; assay: Binding affinity to His6-tagged human BRD4 bromodomain-1 (N44 to E168 residues) expressed in Escherichia coli BL21(DE3) by ITC
[7] = species on record: Homo sapiens; assay: Inhibition of BET bromodomain in human 22Rv1 cells assessed as full length AR protein level at 4 uM after 48 hrs by Western blot assay (reference value: 1); type: cell-based
[8] = species on record: Homo sapiens; assay: Inhibition of BET bromodomain in human LNCAP cells assessed as reduction in ERG mRNA level at 1 uM after 48 hrs by qPCR assay; type: cell-based
[9] = system: MCF7; assay: Antiproliferative activity against human MCF7 cells treated at 12 hrs post cell seeding measured at 72 to 144 hrs post cell seeding by Cell-Titer Glo assay; type: functional, cell-based
[10] = system: NCI-H1975; assay: Antiproliferative activity against human NCI-H1975 cells treated at 12 hrs post cell seeding measured at 72 to 144 hrs post cell seeding by Cell-Titer Glo assay; type: functional, cell-based
[11] = system: HFL1; assay: Antiproliferative activity against HFL1 cells treated at 12 hrs post cell seeding measured at 72 to 144 hrs post cell seeding by Cell-Titer Glo assay; type: cell-based; details: Homo sapiens
[12] = system: HeLa; assay: Antiproliferative activity against human HeLa cells treated at 12 hrs post cell seeding measured at 72 to 144 hrs post cell seeding by Cell-Titer Glo assay; type: functional, cell-based
[13] = system: U2OS; assay: Antiproliferative activity against human U2OS cells treated at 12 hrs post cell seeding measured at 72 to 144 hrs post cell seeding by Cell-Titer Glo assay; type: functional, cell-based
[14] = system: CWR22R; assay: Inhibition of colony formation in human 22Rv1 cells after 14 days by crystal violet staining based assay; type: functional, cell-based
[15] = system: Hs-578T; assay: Antiproliferative activity against human Hs578T cells treated at 12 hrs post cell seeding measured at 72 to 144 hrs post cell seeding by Cell-Titer Glo assay; type: functional, cell-based
[16] = system: HT-29; assay: Antiproliferative activity against human HT-29 cells treated at 12 hrs post cell seeding measured at 72 to 144 hrs post cell seeding by Cell-Titer Glo assay; type: functional, cell-based
[17] = system: VCaP; assay: Inhibition of BET bromodomain in human VCaP cells assessed as reduction in TMPRSS2 mRNA level at 1 uM after 48 hrs by qPCR assay; type: cell-based
[18] = system: CWR22R; assay: Antimigratory activity against human 22Rv1 cells assessed as inhibition of wound closure at 1 uM after 48 hrs by bright field microscopic method; type: functional, cell-based
[19] = Half life in Sprague-Dawley rat at 10 mg/kg, po administered as single dose; type: ADME, organism-based; details: in vivo
[20] = Cmax in Sprague-Dawley rat at 10 mg/kg, po administered as single dose; type: ADME, organism-based; set-up: dose 10 mg/kg, route oral; details: in vivo
[21] = system: MV4-11; assay: Antiproliferative activity against human MV4-11 cells treated at 12 hrs post cell seeding measured at 72 to 144 hrs post cell seeding by Cell-Titer Glo assay; type: functional, cell-based
[22] = species on record: Homo sapiens; assay: Inhibition of BET bromodomain in human 22Rv1 cells assessed as AR-varient protein level at 1 uM after 48 hrs by Western blot assay (reference value: 1); type: cell-based
[23] = system: A549; assay: Antiproliferative activity against human A549 cells treated at 12 hrs post cell seeding measured at 72 to 144 hrs post cell seeding by Cell-Titer Glo assay; type: functional, cell-based
[24] = system: VCaP; assay: Inhibition of BET bromodomain in human VCaP cells assessed as reduction in c-Myc mRNA level at 1 uM after 48 hrs by qPCR assay; type: cell-based
[25] = system: PC-3; assay: Antiproliferative activity against human PC3 cells treated at 12 hrs post cell seeding measured at 72 to 144 hrs post cell seeding by Cell-Titer Glo assay; type: functional, cell-based
[26] = system: CWR22R; assay: Antimigratory activity against human 22Rv1 cells at 1 uM after 48 hrs by transwell assay relative to control; type: functional
[27] = system: CWR22R; assay: Antitumor activity against human 22Rv1 cells xenografted in C.B-17/IcrHsd-Prkdc scid mouse assessed as tumor growth inhibition at 50 mg/kg, ip administered 5 times per week relative to control; type: functional; details: 22Rv1, ip, read-out: TGI
[28] = species on record: Homo sapiens; assay: Inhibition of BET bromodomain in human 22Rv1 cells assessed as reduction in c-Myc mRNA level at 1 uM after 48 hrs by qPCR assay; type: cell-based
[29] = species on record: Homo sapiens; assay: Inhibition of BET bromodomain in human 22Rv1 cells assessed as reduction in ERG mRNA level at 1 uM after 48 hrs by qPCR assay; type: cell-based
[30] = system: DU-145; assay: Antiproliferative activity against human DU145 cells treated at 12 hrs post cell seeding measured at 72 to 144 hrs post cell seeding by Cell-Titer Glo assay; type: functional, cell-based
[31] = Clearance in Sprague-Dawley rat at 2 mg/kg, iv administered as single dose; type: ADME, organism-based; details: in vivo
[32] = system: LNCaP; assay: Antiproliferative activity against human LNCAP cells; type: functional, cell-based

SMILES	IC50 [1] [nM]	ΔTm [2] [°C]	ΔTm [3] [°C]	IC50 [4] [nM]	Kd [6] [nM]	IC50 [9] [nM]	IC50 [10] [nM]	IC50 [11] [nM]	IC50 [12] [nM]	IC50 [13] [nM]	IC50 [15] [nM]	IC50 [16] [nM]	IC50 [21] [nM]	IC50 [23] [nM]	IC50 [25] [nM]	IC50 [30] [nM]	further results
Cc1noc(C)c1-c1ccc2c(c1)O[C@H](CC1CC1)C(=O)N2CCN1CCOCC1	3030	5.4	5.1	590													
Cc1noc(C)c1-c1ccc2c(c1)O[C@H](CC1CC1)C(=O)N2	580	7.5	3.6	100	110	1800	9860	20000	18600	11200	1900	1390	570	5400	10800	8210	inhibition [5]: Active; fold change (FC) [7]: 0.4; inhibition [8]: Active; inhibition [14]: Dose-dependent effect; inhibition [17]: Active; inhibition [18]: Active; half-life [19]: 42 min; Cmax [20]: 830 ng/mL; fold change (FC) [22]: 0.83; inhibition [24]: Active; Activity [26]: 27%; inhibition in vivo at 50 mg/kg [27]: 70%; inhibition [28]: Active; inhibition [29]: Active; clearance [31]: 33.9 mL/min/kg
Cc1noc(C)c1-c1ccc2c(c1)O[C@H](CC(C)C)C(=O)N2	460	7.8	2.4	120	81	1160	33000	30200	41100	12900	1110	600	170	5960	10400	7370	
Cc1noc(C)c1-c1ccc2c(c1)OC(c1ccccc1F)C(=O)N2 (centres undefined)	640	8.4	-0.3	570													
Cc1sc2c(c1C)C(c1ccc(Cl)cc1)=N[C@@H](CC(=O)OC(C)(C)C)c1nnc(C)n1-2	160	9	-2.4			200	1230	290	3760	1620	160	20	160	1670	3010	2520	IC50 [32]: 110 nM
Cc1noc(C)c1-c1ccc2c(c1)OC(c1ccccc1)C(=O)N2 (centres undefined)	6710	9.3	2.4	150													
CCN1C(=O)[C@@H](CC2CC2)Oc2cc(-c3c(C)noc3C)ccc21	2010	4.8	3.7	480	334												
